Experiment [1] concerns Mycobacterium tuberculosis H37Ra. As to the kind of experiment: MIC, BacTiter-Glo ATP quantification, surrogate Mtb strain. Format: cell-based. The following applies: for MIC Mtb: Mycobacterium tuberculosis H37Ra, 7H9-palmitate, 7 days, BacTiter-Glo, n=3; for MIC: Mycobacterium tuberculosis, H37RA, 168 h, read-out: MIC Mtb, Mycobacterium tuberculosis H37Ra, 7H9-palmitate, 7 days, BacTiter-Glo, n=3. As to the method: The antimicrobial effect of the 21 synthesized compounds was initially accessed against a panel of 4 microbial indicator strains (Escherichia coli ATCC35218, Staphylococcus aureus ATCC33592, Septoria tritici MUCL45408 and Mycobacterium tuberculosis H37Ra). Cytotoxicity was investigated using an epithelia cell line from human lung carcinoma (Calu-3).
The minimum inhibitory concentration (MIC) of the […] compounds 5a-i, 6a-b,7a, 8a and C1-8 was determined as previously described with only minor changes. 6,7 Briefly, the cell density of an overnight cultures of Escherichia coli ATCC35218 and Staphylococcus aureus […] was diluted to 5 × 10^5 cells/mL in cation adjusted Mueller Hinton II medium (Becton Dickinson, Sparks, NV, USA) and distributed into 96-well plates. Three 12-point dilution series of rifampicin, tetracycline and gentamicin ranging from 64 - 0.03 µg/mL (all Sigma Aldrich, St. Louis, MO, USA), respectively, were used as positive controls. All tested compounds were dissolved in dimethyl sulfoxide (DMSO, Carl Roth GmbH + Co., Karlsruhe, Germany) and tested in triplicate at the same concentrations as the positive controls.
Bacterial suspensions without test compound or positive control were used as negative controls.
Medium background was averaged from 5 replicates. Assay incubation was done at 37°C, 180rpm and 85% relative humidity. The turbidity of each well was measured with a microplate spectrophotometer at 600 nm (LUMIstar® Omega BMG Labtech, Ortenberg, Germany). Growth inhibition was calculated relative to the absorption of the controls.
For S. tritici MUCL45408, a previously prepared spore solution was used to adjust the assay inoculum to 1 × 10^5 spores/mL in potato dextrose medium (Sigma Aldrich). Septoria assay plates were incubated for 4 days at 25°C, 180 rpm and 85% rH. Tebuconazole (Cayman Chemical Company, Ann Arbor, MI, USA) and amphotericin B (Sigma Aldrich) were used as positive control. Cell viability was evaluated via ATP quantification (BacTiter-Glo™, Promega, Walldorf, Germany) according to the manufacturer’s […]
Mycobacterium tuberculosis ITM-M006710 H37Ra (ATCC 9431) was incubated for 14 days in Middlebrook 7H9 broth (from ThermoFisher Scientific, Walthman, MA, USA) supplemented with 5.6 µg/mL palmitic acid (Sigma Aldrich), 1 mg/mL casitone (ThermoFisher Scientific), 5mg/mL BSA, 4µg/mL catalase (Sigma Aldrich), and 0.2% glycerol at 37°C, 180 rpm and 85% rH. In a first step, the culture was diluted to McFarland standard of 1, before the final inoculum density of a 1 × 10^6 cells/mL was obtained by further dilution with freshly prepared medium. Individual 12-point dilution series of rifampicin, ampicillin and gentamicin (ranging from 64-0.03 µg/mL) were used as positive controls. The assay plates were incubated for 7 days under microaerophilic conditions at 37°C/5% CO2 (BD gaspak CO2 system) and read-out was done by ATP quantification (s. above).
The MIC was defined as the minimum concentration where at least 85% growth inhibition relative to the negative control was measured. Relative inhibition for the microtiter turbidity tests (MTT) were […]
rel. inh.% = 100 * [1- (AU sample - AU Low)/(AU High - AU Low)]
AU: absorption unit at 600nm; Low: medium blank; High: negative control of maximal growth.
Accordingly, the BacTiter-Glo™ (BTG) assays were calculated as rel. inh.% = 100 * [1- (LU sample - LU Low)/(LU High - LU Low)]
AU: luminescence unit; Low: medium blank; High: negative control of maximal growth.
For Mycobacterium tuberculosis ATCC 35801 a resazurin microtiter assay was carried out as previously described8 Briefly, assay plates were set up by transferring 10 µl of compounds form a 1:2-fold dilution series in distilled and sterile water to a 96-well plate. The final assay´s concentrations range from 0.39-100 µM and as positive and negative control 5 µM rifampicin and 0.5% DMSO were used. Subsequently a bacterial suspension with Mycobacterium tuberculosis with a final OD560 of 0.0003 was prepared in […]

Experiment [2] deals with Escherichia coli ATCC35218. As to the kind of experiment: MIC, microtiter turbidity test. It is filed as cell-based.
The subject of experiment [3] is Staphylococcus aureus ATCC33592. Description: MIC, microtiter turbidity test. Format: cell-based. The following applies: read-out: MIC Sa.
Experiment [4] has as its system Septoria tritici MUCL45408. As to the kind of experiment: MIC, BacTiter-Glo ATP quantification. Format: cell-based. As to conditions: read-out: MIC Str.
The test system of the next experiment is various Mtb strains. Also on record: method as in PMID 27654337, PMID 29900893, PMID 36934122, PMID 32750539. The following applies: cited from earlier work.
[5] abbreviates: Escherichia coli ATCC35218, MHII medium, turbidity at 600 nm, n=3, read-out: MIC Ec.
Where [6] appears, read: Escherichia coli, ATCC35218, read-out: MIC Ec.
[7] abbreviates: Staphylococcus aureus ATCC33592 (MRSA), MHII medium, turbidity at 600 nm, n=3.
Setting [8] is: Staphylococcus aureus, ATCC 33592 / MRSA.
The mark [9] stands for this setting: Septoria tritici MUCL45408, PDB medium, 4 days, BacTiter-Glo, n=3.
[10] abbreviates: Zymoseptoria tritici, MUCL45408, 96 h.
[11] abbreviates: ATCC 33592 / MRSA, Staphylococcus aureus ATCC33592 (MRSA), MHII medium, turbidity at 600 nm, n=3.
Where [12] appears, read: Zymoseptoria tritici, 96 h, Septoria tritici MUCL45408, PDB medium, 4 days, BacTiter-Glo, n=3.

Consider 24 compounds from publication PMC11110795, “Design, synthesis and antimycobacterial activity of imidazo[1,5-a]quinolines and their zinc-complexes” (RSC Medicinal Chemistry, 2024).

Molecules are shown by their SMILES. Converted amounts (≈) assume the structure as drawn. Where two headings read alike, the source gives them in different places.

What is called MIC is the lowest concentration that inhibits growth of the organism. Regarding `c1ccc(N(c2ccccc2)c2nc(-c3ccccn3)c3ccc4ccccc4n23)cc1` [8a], in experiment [1], the “MIC Mtb” value is above 155 µM. For the same compound, the MIC in experiment [1], in experiment [2] (setting [5]), in experiment [2] (setting [6]), in experiment [3] (setting [7]), in experiment [3] (setting [8]) and in experiment [4] (setting [9]) was above 155 µM throughout. Besides, the minimum inhibitory concentration (MIC) in experiment [4] (setting [10]) was above 155 µM.

Consider `NCC[C@H](O)C(=O)N[C@@H]1C[C@H](N)[C@@H](O[C@H]2O[C@H](CN)[C@@H](O)[C@H](O)[C@H]2O)[C@H](O)[C@H]1O[C@H]1O[C@H](CO)[C@@H](O)[C@H](N)[C@H]1O` [amikacin], for which the “MIC, literature reported values” with various Mtb strains is 0.4 to 1.7 µM.

For the compound `CC(=O)[O-].CC(=O)[O-].[Cu+2]` [Cu(OAc)2, reference compound], in experiment [1], the “MIC Mtb” value was found to be 43 µM.

As for `CN(C)c1ccccc1-c1nc(-c2ccccc2)n2c1ccc1ccccc12` [5h], the MIC in experiment [1] was 2 µM (≈ 0.727 µg/mL); in experiment [2] (setting [5]) it was above 127 µM; in experiment [3] (setting [11]), above 127 µM; in experiment [3] (setting [7]) it was above 127 µM; in experiment [4] (setting [9]), above 127 µM; in experiment [4] (setting [12]) it was above 127 µM.

Turning to `CC(C)(C)C(O)(CCc1ccc(Cl)cc1)Cn1cncn1` (stereo not shown) [TEB, tebuconazole, reference compound], in experiment [4] (setting [10]), the MIC was above 0.01 µM.

For `c1ccc(-c2nc(-c3ccccn3)c3ccc4ccccc4n23)cc1` [5c], the MIC in experiment [1] is 25 µM (≈ 8.03 µg/mL); in experiment [2] (setting [5]) it was above 199 µM; in experiment [3] (setting [11]), above 199 µM; in experiment [3] (setting [7]) it was above 199 µM; in experiment [4] (setting [9]), above 199 µM; in experiment [4] (setting [12]), above 199 µM.

As for `c1ccc(-c2nc(-c3nccc4ccccc34)c3ccc4ccccc4n23)cc1` [5d], the MIC in experiment [2] (setting [5]), in experiment [3] (setting [11]), in experiment [3] (setting [7]), in experiment [4] (setting [9]) and in experiment [4] (setting [12]) was above 172 µM each time.

As to `COc1nc2ccc(Br)cc2cc1[C@@H](c1ccccc1)[C@@](O)(CCN(C)C)c1cccc2ccccc12` [bendaquiline], the “MIC, literature reported values” in the experiment with various Mtb strains was 0.03 to 1 µM.

As for `C[C@@H]1[C@H](O)[C@@H](C)/C=C/C=C/C=C/C=C/C=C/C=C/C=C/[C@H](O[C@@H]2O[C@H](C)[C@@H](O)[C@H](N)[C@@H]2O)C[C@@H]2O[C@](O)(C[C@@H](O)C[C@@H](O)[C@H](O)CC[C@@H](O)C[C@@H](O)CC(=O)O[C@H]1C)C[C@H](O)[C@H]2C(=O)O` [AMB, amphotericin B, reference compound], the MIC in experiment [4] (setting [12]) came out at 0.135 µM (≈ 0.125 µg/mL).

With `C[C@H]1COc2c(N3CCN(C)CC3)c(F)cc3c(=O)c(C(=O)O)cn1c23` [levofloxacin], in the experiment on various Mtb strains, the “MIC, literature reported values” is 0.8 to 1.4 µM.

Consider `[Cl-].[Cl-].[Zn+2]` [ZnCl2, reference compound], for which the “MIC Mtb” value in experiment [1] was 235 µM. For the same compound, the minimum inhibitory concentration (MIC) in experiment [2] (setting [5]) and in experiment [3] (setting [7]) was above 470 µM each time.

As to `c1ccc(-c2nc(-c3cccc4ccccc34)n3c2ccc2ccccc23)nc1` [7a], the minimum inhibitory concentration (MIC) in experiment [2] (setting [5]), in experiment [3] (setting [11]), in experiment [3] (setting [7]), in experiment [4] (setting [9]) and in experiment [4] (setting [12]) was above 172 µM each time.

For the compound `c1ccc(-c2nc(-c3ccccc3)n3c2ccc2ccccc23)cc1` [5b], the “MIC Mtb” value in experiment [1] was above 200 µM. The MIC in experiment [1], in experiment [2] (setting [5]), in experiment [3] (setting [11]), in experiment [3] (setting [7]), in experiment [4] (setting [9]) and in experiment [4] (setting [12]) was above 200 µM each time.

Take `c1ccc(-c2nc(-c3cccs3)c3ccc4ccccc4n23)cc1` [5a]: the “MIC Mtb” value in experiment [1] is above 196 µM. The MIC in experiment [1], in experiment [2] (setting [5]), in experiment [2] (setting [6]), in experiment [3] (setting [7]), in experiment [3] (setting [8]) and in experiment [4] (setting [9]) was above 196 µM each time. In experiment [4] (setting [10]), the MIC is above 196 µM.

As to `CNC(C)C1CCC(N)C(OC2C(N)CC(N)C(OC3OCC(C)(O)C(NC)C3O)C2O)O1` (stereo not shown) [gentamicin, reference compound], in experiment [1], the MIC stood at 4 µM (≈ 1.91 µg/mL).

With `c1ccc(-c2nc(-c3ccccn3)n3c2ccc2ccccc23)nc1` [6a], the minimum inhibitory concentration (MIC) in experiment [2] (setting [5]), in experiment [3] (setting [11]), in experiment [3] (setting [7]), in experiment [4] (setting [9]) and in experiment [4] (setting [12]) was above 198 µM each time.

With `c1ccc(-c2nc(-c3ncccn3)c3ccc4ccccc4n23)cc1` [5e], the MIC was 1 µM (≈ 0.322 µg/mL) in experiment [1]; above 148 µM in experiment [2] (setting [5]); above 148 µM in experiment [3] (setting [11]); above 148 µM in experiment [3] (setting [7]); above 148 µM in experiment [4] (setting [9]); above 148 µM in experiment [4] (setting [12]).

Consider `CC1(C)S[C@@H]2[C@H](NC(=O)[C@H](N)c3ccccc3)C(=O)N2[C@H]1C(=O)O` [AMP, ampicillin, reference compound], for which, in experiment [1], the MIC was found to be 184 µM (≈ 64.3 µg/mL).

On to `[Cl][Fe]([Cl])[Cl]` [FeCl3, reference compound], for which, in experiment [1], the “MIC Mtb” value is above 394 µM. Further, the MIC in experiment [2] (setting [5]) and in experiment [3] (setting [7]) was above 394 µM throughout.

`CC[C@@H](CO)NCCN[C@@H](CC)CO` [ethambutol]: in the experiment on various Mtb strains, the “MIC, literature reported values” was 0.3 to 3 µM.

As for `c1ccc(-c2ccc(-c3nc(-c4ccccc4)n4c3ccc3ccccc34)nc2)cc1` [5f], the MIC is 34 µM (≈ 13.5 µg/mL) in experiment [1]; above 136 µM in experiment [2] (setting [5]); above 136 µM in experiment [3] (setting [11]); above 136 µM in experiment [3] (setting [7]); above 136 µM in experiment [4] (setting [9]); above 136 µM in experiment [4] (setting [12]).

Consider `COc1ccccc1-c1nc(-c2ccccc2)n2c1ccc1ccccc12` [5i], for which the MIC is 46 µM (≈ 16.1 µg/mL) in experiment [1]; above 183 µM in experiment [2] (setting [5]); above 183 µM in experiment [3] (setting [11]); above 183 µM in experiment [3] (setting [7]); above 183 µM in experiment [4] (setting [9]); above 183 µM in experiment [4] (setting [12]).

On to `CO[C@H]1/C=C/O[C@@]2(C)Oc3c(C)c(O)c4c(O)c(c(/C=N/N5CCN(C)CC5)c(O)c4c3C2=O)NC(=O)/C(C)=C\C=C\[C@H](C)[C@H](O)[C@@H](C)[C@@H](O)[C@@H](C)[C@H](OC(C)=O)[C@@H]1C` [rifampicin, reference compound], for which the MIC is 0.07 µM (≈ 0.0576 µg/mL) in experiment [1], 5 µM (≈ 4.11 µg/mL) in experiment [2] (setting [5]) and above 78 µM in experiment [3] (setting [11]).

`c1ccc(-c2nc(-c3ccccn3)n3c2ccc2ccccc23)cc1` [6b]: the MIC in experiment [2] (setting [5]), in experiment [3] (setting [11]), in experiment [3] (setting [7]), in experiment [4] (setting [9]) and in experiment [4] (setting [12]) was above 199 µM each time.
